This is an account of results in US9718905B2, “Polythiophene, water-soluble electrically conductive polymer using it, and method for producing it” (TOSOH CORPORATION, priority 2012, dated 2017).

One data set can be described thus: Storage and handling in air. Type of data set: physicochemical.
Details: not given
Take `O=S(=O)([O-])CCNCC1COc2cscc2O1.[K+]` (stereo not drawn) [Example 1, Potassium N-(2,3-dihydro-thieno[3,4-b][1,4]dioxin-2-ylmethyl)-2-aminoethanesulfonate]: the “storage and handling in air” value was “could be stored and handled in air”.
Still for that read-out and setting: the same measure for `CN(CCS(=O)(=O)[O-])CC1COc2cscc2O1.[Na+]` (stereo not drawn) [Example 2, Sodium N-methyl-N-(2,3-dihydro-thieno[3,4-b][1,4]dioxin-2-ylmethyl)-2-aminoethanesulfonate]: “could be stored and handled in air”; for `O=S(=O)([O-])CC1COc2cscc2O1.[Na+]` (stereo not drawn) [Example 3, Sodium 2,3-dihydro-thieno[3,4-b][1,4]dioxin-2-ylmethanesulfonate]: “could be stored and handled in air”.
On the same count and under the same terms, with `O=S(=O)([O-])CCCCCCC1COc2cscc2O1.[Na+]` (stereo not drawn) [Example 4, sodium 6-(2,3-dihydro-thieno[3,4-b][1,4]dioxin-2-yl)-1-hexanesulfonate] the entry was “could be stored and handled in air”; with `O=S(=O)([O-])c1ccc(OCC2COc3cscc3O2)cc1.[K+]` (stereo not drawn) [Example 17, Potassium O-(2,3-dihydro-thieno[3,4-b][1,4]dioxin-2-ylmethyl)-4-phenolsulfonate], “could be stored and handled in air”; with `O=S(=O)([O-])c1ccc(OCC2COc3cscc3O2)cc1.[Na+]` (stereo not drawn) [Example 18, sodium O-(2,3-dihydro-thieno[3,4-b][1,4]dioxin-2-ylmethyl)-4-phenolsulfonate], “could be stored and handled in air”.

The nature of another data set: Water solubility of thiophene compound (monomer). Type of data set: physicochemical. To be noted: at room temperature. How it is done: The thiophene compound used as the material is more preferably one having water solubility to such an extent that it is dissolved in water at room temperature or with heating in an amount of at least 0.5 wt %.
The thiophene compound used as a material is more preferably one having water solubility to such an extent that it is soluble in water at room temperature or with heating in an amount of at least 0.5 wt %.
For the molecule `O=S(=O)([O-])CCNCC1COc2cscc2O1.[K+]` (stereo not drawn) [Example 1, Potassium N-(2,3-dihydro-thieno[3,4-b][1,4]dioxin-2-ylmethyl)-2-aminoethanesulfonate], the water solubility entry is “at least 1 wt %”.
Still for that read-out and setting: with `CN(CCS(=O)(=O)[O-])CC1COc2cscc2O1.[Na+]` (stereo not drawn) [Example 2, Sodium N-methyl-N-(2,3-dihydro-thieno[3,4-b][1,4]dioxin-2-ylmethyl)-2-aminoethanesulfonate] the entry was “at least 1 wt %”.
Still for that read-out and setting: with `O=S(=O)([O-])CC1COc2cscc2O1.[Na+]` (stereo not drawn) [Example 3, Sodium 2,3-dihydro-thieno[3,4-b][1,4]dioxin-2-ylmethanesulfonate] the entry was “at least 1 wt %”.
For `O=S(=O)([O-])CCCCCCC1COc2cscc2O1.[Na+]` (stereo not drawn) [Example 4, sodium 6-(2,3-dihydro-thieno[3,4-b][1,4]dioxin-2-yl)-1-hexanesulfonate], the water solubility result is reported as “at least 1 wt %”.

Staying with this data set, now noted: temperature not stated.
As to `O=S(=O)([O-])c1ccc(OCC2COc3cscc3O2)cc1.[K+]` (stereo not drawn) [Example 17, Potassium O-(2,3-dihydro-thieno[3,4-b][1,4]dioxin-2-ylmethyl)-4-phenolsulfonate], the water solubility entry is “at least 1 wt %”.
On the same count and under the same terms, the same measure for `O=S(=O)([O-])c1ccc(OCC2COc3cscc3O2)cc1.[Na+]` (stereo not drawn) [Example 18, sodium O-(2,3-dihydro-thieno[3,4-b][1,4]dioxin-2-ylmethyl)-4-phenolsulfonate]: “at least 1%”.
